Here are results for three compounds from patent US9539273B2, “Targeted delivery of anti-fungal agents” (EDH Biotech Corp, priority 2013, dated 2017).

SMILES strings stand for the structures.

The nature of this assay: Binding of stilbene derivatives to chitosan, dissociation constants by indirect difference spectroscopy. Conditions: qualitative statement on binding affinity. An excerpt:
Binding studies of stilbene derivatives to chitosan or MHEC
`Nc1ccc(C=Cc2ccc(N)cc2S(=O)(=O)O)c(S(=O)(=O)O)c1` [4,4′-diaminostilbene-2,2′-disulfonic acid]: the “binding to chitosan (in words)” value is reported as “neither the core structure itself nor its bis(dichlorotriazine) derivative (R^4a═R^6a═R^4b═R^6b═Cl) binds to chitosan”.

Turning to `O=S(=O)(O)c1cc(Nc2nc(NCCO)nc(Nc3ccccc3)n2)ccc1C=Cc1ccc(Nc2nc(NCCO)nc(Nc3ccccc3)n2)cc1S(=O)(=O)O` [OB85], the “binding to chitosan (in words)” value is “no significant improvement in binding”.

With `O=S(=O)(O)c1cc(Nc2nc(Nc3ccccc3)nc(N(CCO)CCO)n2)ccc1/C=C/c1ccc(Nc2nc(Nc3ccccc3)nc(N(CCO)CCO)n2)cc1S(=O)(=O)O` [calcofluor white], the “binding to chitosan (in words)” value is listed as “no significant improvement in binding”.
